In patent US7858615B2, “(S)-(-)-1-(4-fluoroisoquinolin-5-Yl)Sulfonyl-2-methyl-1,4-homopiperazine hydrochloride dihydrate” (Kowa Co., Ltd., priority 2004, dated 2010):
“Also recorded” adds a separate entry of the source. Counter-ions that a name gives are not always drawn.

Tests used:
[1] = Test Example 2 (Hygroscopicity): weight increase in open weighing bottle at 25° C. and controlled RH; type: physicochemical; conditions: for hygroscopic stability in words: RH 33% or 92%, time-dependent; for water content reached with elapsed time: eventual value, hydrochloride
Procedure: Each of the dihydrate of the present invention produced in Example 1 and (S)-(−)-1-(4-fluoroisoquinolin-5-yl)sulfonyl-2-methyl-1,4-homopiperazine hydrochloride anhydrate (each 100 mg) was placed in a weighing bottle. The bottle was allowed to stand in a container maintained at 25° C. and an RH of 33% or 92%, with the container being opened. The weighing bottle was time-dependently weighed, to thereby determine increase in weight for evaluation of hygroscopicity. FIGS. 6 and 7 show the results.

[2] = Test Example 1 (Thermal Stability): storage in sealed containers in thermostats; type: physicochemical; conditions: for Percent remain (%): sealed container
Procedure: The dihydrate of the present invention produced in Example 1 was placed in sealable containers such that each container included 1 g of the dihydrate. After sealing, these containers were maintained in thermostats at 40, 60, and 80° C. for 7 and 14 days, so as to evaluate thermal stability.

| Compound | hygroscopic stability in words [1] | water content reached with elapsed time ([1]; relative humidity 92%) | water content reached with elapsed time ([1]; relative humidity 92%, listed as anhydrate) [%] | water content after seven days ([1]; relative humidity 92%, seven days) [%] | change of water content (hygroscopic behavior) in words ([1]; relative humidity 92% RH, 14 days, hydrochloride dihydrate) | thermal stability in words ([2]; after storage at 40° C., 60° C., or 80° C. for two weeks) | Percent remain (%) ([2]; storage temp. 40° C., storage period 7 days) | Percent remain (%) ([2]; storage temp. 40° C., storage period 14 days) | Percent remain (%) ([2]; storage temp. 60° C., storage period 7 days) | Percent remain (%) ([2]; storage temp. 60° C., storage period 14 days) | Percent remain (%) ([2]; storage temp. 80° C., storage period 7 days) | Percent remain (%) ([2]; storage temp. 80° C., storage period 14 days) | thermal stability (decomposition or undesired reaction) in words ([2]; stored at 80° C. for two weeks) |
| --- | --- | --- | --- | --- | --- | --- | --- | --- | --- | --- | --- | --- | --- |
| C[C@H]1CNCCCN1S(=O)(=O)c1cccc2cncc(F)c12.Cl [anhydrous crystals, (S)-(−)-1-(4-fluoroisoquinolin-5-yl)sulfonyl-2-methyl-1,4-homopiperazine hydrochloride] | poor hygroscopic stability | about 40% | 40 | 40 | – | – | – | – | – | – | – | – | – |
| C[C@H]1CNCCCN1S(=O)(=O)c1cccc2cncc(F)c12 [dihydrate, (S)-(−)-1-(4-fluoroisoquinolin-5-yl)sulfonyl-2-methyl-1,4-homopiperazine hydrochloride dihydrate] | excellent hygroscopic stability | – | – | – | constant; also recorded: no change in its water content | high thermal stability | 100.0 | 99.6 | 99.6 | 99.8 | 99.8 | 99.8 | does not decompose |
